Test results taken from US9527834B2, “Substituted 1-benzylquinoxalin-2(1H)-one analogs as positive allosteric modulators of muscarinic acetylcholine receptor M1” (Vanderbilt University, priority 2013, dated 2016).

Biological target: T1, mAChR M1 (Homo sapiens, UniProt P11229)
T1 construct: expressed in transfected cells; host or cells: CHO-K1
T1 sequence (P11229 1-460): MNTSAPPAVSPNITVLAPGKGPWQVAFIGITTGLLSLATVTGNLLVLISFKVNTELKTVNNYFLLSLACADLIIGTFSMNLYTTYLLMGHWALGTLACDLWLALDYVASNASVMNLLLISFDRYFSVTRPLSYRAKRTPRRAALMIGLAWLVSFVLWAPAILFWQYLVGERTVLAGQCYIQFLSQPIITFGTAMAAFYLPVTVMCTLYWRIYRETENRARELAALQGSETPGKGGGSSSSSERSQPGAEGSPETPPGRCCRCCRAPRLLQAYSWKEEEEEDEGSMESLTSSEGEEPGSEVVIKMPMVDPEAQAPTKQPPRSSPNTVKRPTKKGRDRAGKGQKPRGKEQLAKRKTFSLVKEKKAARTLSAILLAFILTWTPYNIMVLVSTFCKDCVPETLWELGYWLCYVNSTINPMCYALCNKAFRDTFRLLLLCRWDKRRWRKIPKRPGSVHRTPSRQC
Experiment: mAChR M1 cell-based functional assay (calcium mobilization, potentiation of EC20 acetylcholine response)
Conditions: mAChR M1-expressing CHO-K1 cells; calcium flux; >10 μM estimated for low potency (no plateau) with >20% increase in ACh response
Source text: Chinese hamster ovary (CHO-K1) cells stably expressing rat (r)M1 were purchased from the American Type Culture Collection and cultured according to their indicated protocol. CHO cells stably expressing human (h)M2, hM3, and hM5 were described previously (Levey, A. I., et al., J Neurosci. 1991, 11, 3218-3226.); hM1 and hM4 cDNAs were purchased from Missouri S&T cDNA Resource; rM4 cDNA was provided by T. I. Bonner (National Institutes of Health, Bethesda, Md.). rM2 and rM3 were cloned from a rat brain cDNA library and sequence verified. hM1, rM2, rM3, hM4, and rM4 cDNAs were used to stably transfect CHO-K1 cells purchased from the American Type Culture Collection using Lipofectamine2000. […]
Calcium flux was measured using the Functional Drug Screening System (FDSS) 6000 (Hamamatsu Corporation, Tokyo, Japan) as an increase in the fluorescent static ratio. […] Agonist activity was analyzed as a concentration-dependent increase in calcium mobilization upon compound addition. Positive allosteric modulator activity was analyzed as a concentration-dependent increase in the EC20 acetylcholine response. Antagonist activity was analyzed as a concentration-dependent decrease in the EC80 acetylcholine response. […]

| EC50 [µM] | Structure (SMILES) |
| --- | --- |
| > 10 | Cn1cc(-c2ccc(Cn3c(=O)cnc4ccccc43)cc2)cn1 [Compound B2] |
| 3.45 | Cn1cc2c(-c3cc(F)c(Cn4c(=O)cnc5ccccc54)c(F)c3)cccc2n1 [Compound B1, 1-(2,6-difluoro-4-(2-methyl-2H-indazol-4-yl)benzyl)quinoxalin-2(1H)-one] |
